# Data: PubChem BioAssay (NCI)
# Several values for one entry are separate records, joined by “and”; a condition that tells them apart may be missing. Identical values can stand only once.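 How tested: cells in 96-well plates exposed to compound for 48 hours at five concentrations. GI50 marks 50% less growth. TGI denotes the concentration required for complete inhibition of growth.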
# Assays:
# Assay in all cases: NCI anticancer screen, dose series, 48 h
# ACHN renal = test system: ACHN renal
# CCRF-CEM leukemia = test system: CCRF-CEM leukemia
# COLO 205 colon = test system: COLO 205 colon
# EKVX NSCLC = test system: EKVX NSCLC
# HL-60(TB) leukemia = test system: HL-60(TB) leukemia
# HOP-92 NSCLC = test system: HOP-92 NSCLC
# HT29 colon = test system: HT29 colon
# K-562 leukemia = test system: K-562 leukemia
# LOX IMVI melanoma = test system: LOX IMVI melanoma
# M14 melanoma = test system: M14 melanoma
# MALME-3M melanoma = test system: MALME-3M melanoma
# MDA-N = test system: MDA-N
# MOLT-4 leukemia = test system: MOLT-4 leukemia
# NCI-H460 lung = test system: NCI-H460 lung
# NCI-H522 lung = test system: NCI-H522 lung
# OVCAR-4 ovarian = test system: OVCAR-4 ovarian
# PC-3 prostate = test system: PC-3 prostate
# RPMI-8226 leukemia = test system: RPMI-8226 leukemia
# RXF 393 renal = test system: RXF 393 renal
# SF-268 CNS = test system: SF-268 CNS
# SK-MEL-28 melanoma = test system: SK-MEL-28 melanoma
# SK-MEL-5 melanoma = test system: SK-MEL-5 melanoma
# UACC-257 melanoma = test system: UACC-257 melanoma
# 786-0 renal = test system: 786-0 renal
# A498 renal = test system: A498 renal
# A549 NSCLC = test system: A549 NSCLC
# BT-549 breast = test system: BT-549 breast
# CAKI-1 renal = test system: CAKI-1 renal
# HCT-116 colon = test system: HCT-116 colon
# HCT-15 colon = test system: HCT-15 colon
# HOP-62 NSCLC = test system: HOP-62 NSCLC
# HS 578T breast = test system: HS 578T breast
# IGROV1 ovarian = test system: IGROV1 ovarian
# KM12 colon = test system: KM12 colon
# MCF7 breast = test system: MCF7 breast
# MDA-MB-231 breast = test system: MDA-MB-231 breast
# MDA-MB-435 = test system: MDA-MB-435
# NCI-H226 lung = test system: NCI-H226 lung
# NCI-H23 lung = test system: NCI-H23 lung
# NCI/ADR-RES ovarian = test system: NCI/ADR-RES ovarian
# OVCAR-3 ovarian = test system: OVCAR-3 ovarian
# OVCAR-5 ovarian = test system: OVCAR-5 ovarian
# OVCAR-8 ovarian = test system: OVCAR-8 ovarian
# SF-295 CNS = test system: SF-295 CNS
# SF-539 CNS = test system: SF-539 CNS
# SK-MEL-2 melanoma = test system: SK-MEL-2 melanoma
# SK-OV-3 ovarian = test system: SK-OV-3 ovarian
# SNB-19 CNS = test system: SNB-19 CNS
# SNB-75 CNS = test system: SNB-75 CNS
# SW-620 colon = test system: SW-620 colon
# T-47D breast = test system: T-47D breast
# TK-10 renal = test system: TK-10 renal
# U251 CNS = test system: U251 CNS
# UACC-62 melanoma = test system: UACC-62 melanoma
# UO-31 renal = test system: UO-31 renal
# DU-145 prostate = test system: DU-145 prostate
# SN12C renal = test system: SN12C renal
compound,measurement,setting,value
CC(C)(C)c1ccc(C(O)CCCN2CCC(C(O)(c3ccccc3)c3ccccc3)CC2)cc1 (stereo unspecified),GI50,ACHN renal,1.67 µM
same,TGI,ACHN renal,3.03 µM
same,GI50,CCRF-CEM leukemia,2 µM
same,TGI,CCRF-CEM leukemia,5.8 µM
same,TGI,COLO 205 colon,2.52 µM and 21.2 µM
same,GI50,EKVX NSCLC,1.37 µM
same,TGI,EKVX NSCLC,2.77 µM
same,GI50,HL-60(TB) leukemia,2.16 µM
same,TGI,HL-60(TB) leukemia,3.97 µM
same,GI50,HOP-92 NSCLC,1.2 µM
same,TGI,HOP-92 NSCLC,2.6 µM
same,TGI,HT29 colon,2.23 µM and 20.9 µM
same,GI50,K-562 leukemia,2.18 µM
same,TGI,K-562 leukemia,5.14 µM
same,GI50,LOX IMVI melanoma,1.5 µM
same,TGI,LOX IMVI melanoma,2.82 µM
same,GI50,M14 melanoma,1.7 µM and 13.5 µM
same,TGI,M14 melanoma,3.21 µM and 18.4 µM
same,TGI,MALME-3M melanoma,3.03 µM and 23.7 µM
same,GI50,MDA-N,23.7 µM
same,TGI,MDA-N,42.6 µM
same,GI50,MOLT-4 leukemia,2.16 µM
same,TGI,MOLT-4 leukemia,5.32 µM
same,GI50,NCI-H460 lung,1.6 µM and 14.6 µM
same,TGI,NCI-H460 lung,2.95 µM and 21.5 µM
same,GI50,NCI-H522 lung,1.83 µM and 13.6 µM
same,TGI,NCI-H522 lung,3.31 µM and 21.2 µM
same,GI50,OVCAR-4 ovarian,1.44 µM
same,TGI,OVCAR-4 ovarian,2.75 µM
same,GI50,PC-3 prostate,1.61 µM
same,GI50,RPMI-8226 leukemia,1.94 µM
same,TGI,RPMI-8226 leukemia,5.49 µM
same,GI50,RXF 393 renal,1.08 µM
same,TGI,RXF 393 renal,2.27 µM
same,GI50,SF-268 CNS,1.57 µM
same,TGI,SF-268 CNS,2.92 µM
same,GI50,SK-MEL-28 melanoma,1.72 µM and 13.9 µM
same,TGI,SK-MEL-28 melanoma,3.11 µM and 19.2 µM
same,GI50,SK-MEL-5 melanoma,1.59 µM and 13.8 µM
same,TGI,SK-MEL-5 melanoma,2.93 µM and 23.5 µM
same,GI50,UACC-257 melanoma,1.4 µM and 13.2 µM
same,TGI,UACC-257 melanoma,2.85 µM and 18.2 µM
O=C1CCCNn2c(nc3ncccc3c2=O)N1,TGI,786-0 renal,> 100 µM
same,TGI,A498 renal,> 100 µM
same,TGI,A549 NSCLC,> 100 µM
same,TGI,ACHN renal,> 100 µM
same,TGI,BT-549 breast,> 100 µM
same,TGI,CAKI-1 renal,> 100 µM
same,TGI,CCRF-CEM leukemia,> 100 µM
same,TGI,COLO 205 colon,> 100 µM
same,TGI,EKVX NSCLC,> 100 µM
same,TGI,HCT-116 colon,> 100 µM
same,TGI,HCT-15 colon,> 100 µM
same,TGI,HL-60(TB) leukemia,> 100 µM
same,TGI,HOP-62 NSCLC,> 100 µM
same,TGI,HOP-92 NSCLC,> 100 µM
same,TGI,HS 578T breast,> 100 µM
same,TGI,HT29 colon,> 100 µM
same,TGI,IGROV1 ovarian,> 100 µM
same,TGI,K-562 leukemia,> 100 µM
same,TGI,KM12 colon,> 100 µM
same,TGI,LOX IMVI melanoma,> 100 µM
same,TGI,M14 melanoma,> 100 µM
same,TGI,MALME-3M melanoma,> 100 µM
same,TGI,MCF7 breast,> 100 µM
same,TGI,MDA-MB-231 breast,> 100 µM
same,TGI,MDA-MB-435,> 100 µM
same,TGI,MDA-N,> 100 µM
same,TGI,MOLT-4 leukemia,> 100 µM
same,TGI,NCI-H226 lung,> 100 µM
same,TGI,NCI-H23 lung,> 100 µM
same,TGI,NCI-H460 lung,> 100 µM
same,TGI,NCI-H522 lung,> 100 µM
same,TGI,NCI/ADR-RES ovarian,> 100 µM
same,TGI,OVCAR-3 ovarian,> 100 µM
same,TGI,OVCAR-4 ovarian,> 100 µM
same,TGI,OVCAR-5 ovarian,> 100 µM
same,TGI,OVCAR-8 ovarian,> 100 µM
same,TGI,PC-3 prostate,> 100 µM
same,TGI,RPMI-8226 leukemia,> 100 µM
same,TGI,RXF 393 renal,> 100 µM
same,TGI,SF-268 CNS,> 100 µM
same,TGI,SF-295 CNS,> 100 µM
same,TGI,SF-539 CNS,> 100 µM
same,TGI,SK-MEL-2 melanoma,> 100 µM
same,TGI,SK-MEL-5 melanoma,> 100 µM
same,TGI,SK-OV-3 ovarian,> 100 µM
same,TGI,SNB-19 CNS,> 100 µM
same,TGI,SNB-75 CNS,> 100 µM
same,TGI,SW-620 colon,> 100 µM
same,TGI,T-47D breast,> 100 µM
same,TGI,TK-10 renal,> 100 µM
same,TGI,U251 CNS,> 100 µM
same,TGI,UACC-257 melanoma,> 100 µM
same,TGI,UACC-62 melanoma,> 100 µM
same,TGI,UO-31 renal,> 100 µM
CC1CC/C(=C\c2ccc(F)cc2)C2=C1C(c1ccc(F)cc1)N1C(=O)CSC1=N2 (stereo unspecified),TGI,786-0 renal,> 100 µM
same,TGI,A498 renal,> 100 µM
same,TGI,ACHN renal,> 100 µM
same,TGI,BT-549 breast,> 100 µM
same,TGI,CAKI-1 renal,> 100 µM
same,TGI,CCRF-CEM leukemia,> 100 µM
same,TGI,COLO 205 colon,> 100 µM
same,TGI,DU-145 prostate,> 100 µM
same,TGI,EKVX NSCLC,> 100 µM
same,TGI,HCT-116 colon,> 100 µM
same,TGI,HCT-15 colon,> 100 µM
same,TGI,HL-60(TB) leukemia,> 100 µM
same,TGI,HS 578T breast,> 100 µM
same,TGI,HT29 colon,> 100 µM
same,TGI,IGROV1 ovarian,> 100 µM
same,TGI,K-562 leukemia,> 100 µM
same,TGI,KM12 colon,> 100 µM
same,TGI,LOX IMVI melanoma,> 100 µM
same,TGI,M14 melanoma,> 100 µM
same,TGI,MALME-3M melanoma,> 100 µM
same,TGI,MCF7 breast,> 100 µM
same,TGI,MDA-MB-231 breast,> 100 µM
same,TGI,MDA-MB-435,> 100 µM
same,TGI,MDA-N,> 100 µM
same,TGI,MOLT-4 leukemia,60.6 µM
same,TGI,NCI-H226 lung,> 100 µM
same,TGI,NCI-H23 lung,> 100 µM
same,TGI,NCI-H460 lung,> 100 µM
same,TGI,NCI/ADR-RES ovarian,> 100 µM
same,TGI,OVCAR-3 ovarian,> 100 µM
same,TGI,OVCAR-8 ovarian,> 100 µM
same,TGI,PC-3 prostate,> 100 µM
same,TGI,RPMI-8226 leukemia,> 100 µM
same,TGI,RXF 393 renal,> 100 µM
same,TGI,SF-268 CNS,> 100 µM
same,TGI,SF-295 CNS,> 100 µM
same,TGI,SF-539 CNS,> 100 µM
same,TGI,SK-MEL-2 melanoma,> 100 µM
same,TGI,SK-MEL-28 melanoma,> 100 µM
same,TGI,SK-MEL-5 melanoma,> 100 µM
same,TGI,SK-OV-3 ovarian,> 100 µM
same,TGI,SN12C renal,> 100 µM
same,TGI,SNB-19 CNS,> 100 µM
same,TGI,SW-620 colon,> 100 µM
same,TGI,T-47D breast,> 100 µM
same,TGI,TK-10 renal,> 100 µM
same,TGI,U251 CNS,> 100 µM
same,TGI,UACC-257 melanoma,> 100 µM
same,TGI,UACC-62 melanoma,> 100 µM
same,TGI,UO-31 renal,> 100 µM
